Reference: the supplement of paper PMC6045584
± gives the standard deviation of the averaged measurements.

How the values were obtained:
[1] = compound: COc1ccc(C2=N[C@@H](c3ccc(Cl)cc3)[C@@H](c3ccc(Cl)cc3)N2C(=O)N2CCNC(=O)C2)c(OC(C)C)c1 [NUTLIN3]; assay: surviving fraction relative to DMSO-only wells; higher = less growth inhibition; conditions: exposure time: 5 days
Outline: (§1)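 Continuous five-day exposure to inhibitors at 0.5, 1, 5, 10, 50, 100, 500 and 1000 nM started 24 hours after log-phase tumour cell lines were seeded at 250–500 cells per well in 384-well plates. Luminescence was read after 10 minutes at room temperature. Viability is given as surviving fraction, meaning CellTiter-Glo luminescence normalised to the median of DMSO-only wells.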

[2] = compound: CN1CC[C@H](c2c(O)cc(O)c3c(=O)cc(-c4ccccc4Cl)oc23)[C@H](O)C1 [FLAVOPIRIDOL]; assay: as above; conditions: exposure time: 5 days
Outline: as §1

Row | Test System | surviving fraction ([1]; 0.5 nM) | surviving fraction ([1]; 1 nM) | surviving fraction ([1]; 5 nM) | surviving fraction ([1]; 10 nM) | surviving fraction ([1]; 50 nM) | surviving fraction ([1]; 100 nM) | surviving fraction ([1]; 500 nM) | surviving fraction ([1]; 1000 nM) | surviving fraction ([2]; 0.5 nM) | surviving fraction ([2]; 1 nM) | surviving fraction ([2]; 5 nM) | surviving fraction ([2]; 10 nM) | surviving fraction ([2]; 50 nM) | surviving fraction ([2]; 100 nM) | surviving fraction ([2]; 500 nM) | surviving fraction ([2]; 1000 nM)
1 | H23 LUNG | 1.02 ± 0.062 | 1.01 ± 0.056 | 1.02 ± 0.034 | 1.04 ± 0.048 | 1.08 ± 0.055 | 1.09 ± 0.085 | 1.05 ± 0.044 | 0.912 ± 0.031 | 1.03 ± 0.034 | 1.05 ± 0.027 | 1.15 ± 0.073 | 1.18 ± 0.079 | 1.54 ± 0.11 | 0.5197 ± 0.005 | 0.0303 ± 0.0015 | 0.026 ± 0.001
2 | HCC78 LUNG | 1 ± 0.075 | 0.918 ± 0.053 | 0.918 ± 0.19 | 0.883 ± 0.18 | 0.946 ± 0.12 | 0.877 ± 0.11 | 0.889 ± 0.12 | 0.941 ± 0.07 | 1.08 ± 0.18 | 0.94 ± 0.032 | 0.898 ± 0.11 | 0.809 ± 0.25 | 0.151 ± 0.032 | 0.0467 ± 0.0059 | 0.0207 ± 0.00058 | 0.02
3 | HCC202 BREAST | 1.1 ± 0.15 | 1.07 ± 0.14 | 1.14 ± 0.14 | 1.15 ± 0.17 | 1.2 ± 0.12 | 1.27 ± 0.13 | 1.23 ± 0.16 | 1.23 ± 0.21 | 0.988 ± 0.55 | 1.17 ± 0.34 | 1.13 ± 0.22 | 1.06 ± 0.31 | 0.847 ± 0.13 | 0.304 ± 0.012 | 0.0405 ± 0.00071 | 0.0405 ± 0.00071
4 | HCC1395 BREAST | 1.18 ± 0.046 | 1.14 ± 0.1 | 1.25 ± 0.022 | 1.12 ± 0.069 | 1.21 ± 0.06 | 1.09 ± 0.061 | 0.999 ± 0.094 | 1.13 ± 0.16 | 1 ± 0.21 | 1.13 ± 0.062 | 1.2 ± 0.097 | 1.311 ± 0.006 | 1.3 ± 0.16 | 0.992 ± 0.14 | 0.51 ± 0.36 | 0.419 ± 0.19
5 | HCC1806 BREAST | 1.07 ± 0.079 | 1.04 ± 0.1 | 1.07 ± 0.15 | 1.08 ± 0.13 | 1.07 ± 0.1 | 1.05 ± 0.17 | 1.05 ± 0.16 | 1.17 ± 0.2 | 0.833 ± 0.14 | 0.959 ± 0.059 | 1.03 ± 0.08 | 1.06 ± 0.062 | 0.586 ± 0.038 | 0.093 ± 0.0078 | 0.0207 ± 0.00058 | 0.0217 ± 0.00058
6 | HCC1954 BREAST | 1.17 ± 0.071 | 1.16 ± 0.08 | 1.11 ± 0.07 | 1.01 ± 0.36 | 1.22 ± 0.26 | 1.14 ± 0.064 | 1.15 ± 0.051 | 0.99 ± 0.036 | 1.16 ± 0.0025 | 1.12 ± 0.063 | 1.49 ± 0.18 | 1.12 ± 0.23 | 0.361 ± 0.1 | 0.0465 ± 0.0057 | 0.0345 ± 0.0014 | 0.0318 ± 0.0039
7 | HCT15 LARGE INTESTINE | 1.01 ± 0.038 | 1.01 ± 0.013 | 1.01 ± 0.018 | 0.992 ± 0.013 | 1.05 ± 0.034 | 1.07 ± 0.061 | 1.04 ± 0.056 | 1.01 ± 0.017 | 1.06 ± 0.085 | 0.963 ± 0.12 | 0.991 ± 0.13 | 0.92 ± 0.12 | 0.45 ± 0.035 | 0.103 ± 0.013 | 0.0417 ± 0.0025 | 0.0417 ± 0.0015
8 | HELA CERVIX | 1.01 ± 0.092 | 1 ± 0.039 | 1 ± 0.025 | 0.984 ± 0.043 | 1.06 ± 0.044 | 1.07 ± 0.041 | 1.08 ± 0.03 | 1.13 ± 0.039 | 0.987 ± 0.041 | 0.962 ± 0.045 | 1.03 ± 0.086 | 0.936 ± 0.018 | 1.16 ± 0.053 | 0.691 ± 0.027 | 0.0347 ± 0.001 | 0.0268 ± 0.00029
9 | HOS BONE | 1.011 ± 0.0078 | 1.03 ± 0.014 | 1.008 ± 0.01 | 0.994 ± 0.02 | 1.06 ± 0.02 | 1.05 ± 0.01 | 1.057 ± 0.0091 | 1.09 ± 0.021 | 1.02 ± 0.018 | 1.03 ± 0.011 | 1.034 ± 0.01 | 1.04 ± 0.019 | 0.9813 ± 0.0095 | 0.352 ± 0.02 | 0.0367 ± 0.0072 | 0.035 ± 0.003
10 | HOSMNG BONE | 1.04 ± 0.056 | 1.03 ± 0.033 | 0.979 ± 0.098 | 0.975 ± 0.076 | 1.09 ± 0.025 | 1.12 ± 0.013 | 1.12 ± 0.026 | 1.13 ± 0.023 | 0.977 ± 0.05 | 0.991 ± 0.049 | 1 ± 0.011 | 0.981 ± 0.024 | 1.01 ± 0.079 | 0.498 ± 0.021 | 0.059 ± 0.007 | 0.0577 ± 0.0065
